Measurements taken from patent publication US6908935B2, “Calcium receptor modulating agents” (Amgen Inc., priority 2002, dated 2005).

Each molecule was assayed against T1, human parathyroid cell Ca^2+ receptor (hPCaR) (Homo sapiens, UniProt P41180) (assay: [Ca2+]i measurement with fluo-3 in HEK 293 4.0-7 cells stably transfected with hPCaR). Conditions: fluo-3 fluorescence (485/530 nm), effect on [Ca^2+]i.
T1 construct: expressed in transfected cells
T1 sequence (P41180 20-1078): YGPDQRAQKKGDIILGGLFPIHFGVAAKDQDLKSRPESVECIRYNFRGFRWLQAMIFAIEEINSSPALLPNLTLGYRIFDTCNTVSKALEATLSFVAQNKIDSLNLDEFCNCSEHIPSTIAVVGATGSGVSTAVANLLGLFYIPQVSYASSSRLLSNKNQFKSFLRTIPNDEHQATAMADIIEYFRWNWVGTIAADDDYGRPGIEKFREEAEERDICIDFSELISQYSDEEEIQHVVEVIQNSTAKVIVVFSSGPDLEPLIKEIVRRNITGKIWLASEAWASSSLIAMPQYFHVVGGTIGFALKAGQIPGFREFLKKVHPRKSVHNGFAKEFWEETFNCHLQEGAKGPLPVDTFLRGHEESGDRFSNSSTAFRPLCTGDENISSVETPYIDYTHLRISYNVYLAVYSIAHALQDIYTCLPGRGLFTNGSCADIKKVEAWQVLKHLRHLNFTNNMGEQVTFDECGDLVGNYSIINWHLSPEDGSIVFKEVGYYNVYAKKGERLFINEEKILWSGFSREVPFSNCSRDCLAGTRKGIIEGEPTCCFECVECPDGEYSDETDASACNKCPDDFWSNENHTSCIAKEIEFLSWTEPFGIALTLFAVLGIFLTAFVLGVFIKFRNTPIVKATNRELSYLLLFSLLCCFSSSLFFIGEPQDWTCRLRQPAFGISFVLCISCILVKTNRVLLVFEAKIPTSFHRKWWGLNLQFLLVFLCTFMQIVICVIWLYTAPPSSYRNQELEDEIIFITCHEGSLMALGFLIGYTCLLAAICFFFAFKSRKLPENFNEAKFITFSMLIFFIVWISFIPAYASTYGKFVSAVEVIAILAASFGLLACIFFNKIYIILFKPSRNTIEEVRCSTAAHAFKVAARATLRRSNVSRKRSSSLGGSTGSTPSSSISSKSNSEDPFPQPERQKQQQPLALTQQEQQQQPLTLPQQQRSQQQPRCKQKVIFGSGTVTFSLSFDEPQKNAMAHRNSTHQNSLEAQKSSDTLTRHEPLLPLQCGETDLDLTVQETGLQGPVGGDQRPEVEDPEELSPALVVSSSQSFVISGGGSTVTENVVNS
Assay type: cell-based
Method: The activities of the compounds of the present invention on calcium receptors were measured. In one embodiment, the measurement was performed in accordance with the method described in Example 4 of Nemeth et al., PCT/US95/13704 (International Publication No. WO96/12697) herein incorporated by reference.
A 4.0-kb NotI-HindIII fragment of the human parathyroid cell Ca^2+ receptor (hPCaR) cDNA was subcloned into the mammalian expression vector pCEP4 (Invitrogen) containing the hygromycin-resistant gene as a selectable marker. This plasmid was transfected into HEK 293 cells by calcium phosphate precipitation. Transfected cells were grown in Dulbecco's modified Eagle's medium containing 10% fetal bovine serum and hygromycin (200 μg/mL). Hygromycin-resistant colonies were subcloned and assayed for hPCaR mRNA by solution hybridization using a ^32P-labeled RNA probe complementary to the (4.0 kb) hPCaR sequence (Garrett, et al., J. Biol. Chem. 270, 12919-12925 (1995)). Clone 7 was used to assess the effects of compounds on [Ca^2+]i. This stably transfected cell line is termed HEK 293 4.0-7. For measurements of [Ca^2+]i, the cells were recovered from tissue culture flasks by brief treatment with 0.02% EDTA and then washed and resuspended in PCB containing 1 mM CaCl2 and 0.1% Bovine Serum Albumin (“BSA”). The cells were loaded with fluo-3 by incubation for 30 min at 37° C., with parathyroid cell buffer (126 mM NaCl, 4 mM KCl, 1 mM MgSO4, 0.7 mM K2HPO/KH2PO4, 20 mM HEPES.NaOH (pH 7.45)) containing 0.5% BSA in lmM CaCl2 and 2 μM fluo-3 acetoxymethyl ester. The cells were subsequently washed, each test compound was added to the cells and the fluorescence was recorded by using excitation and emission wavelengths of 485 and 530 nm, respectively.

| Compound | EC50 |
| --- | --- |
| COc1cccc(-c2cc(CN[C@H](C)c3ccccc3)ccc2OC)c1 [Example 449, (1R)-N-((3′,6-bis(methyloxy)-1,1′-biphenyl-3-yl)methyl)-1-phenylethanamine] | ≤ 10 µM |
| COc1ccc(CN[C@H](C)c2ccccc2)cc1-c1ccc(=O)n(CC(F)(F)F)c1 [5-(2-(methyloxy)-5-((((1R)-1-phenylethyl)amino)methyl)phenyl)-1-(2,2,2-trifluoroethyl)-2(1H)-pyridinone] | ≤ 10 µM |
| COc1ccc(CN[C@H](C)c2ccccc2)cc1-c1ccc2c(cnn2C)c1 [(1R)-N-((3-(1-methyl-1H-indazol-5-yl)-4-(methyloxy)phenyl)methyl)-1-phenylethanamine] | ≤ 10 µM |
| Cc1ccc(-c2cccc(CN[C@H](C)c3cccc4ccccc34)c2)cn1 [(1R)-N-((3-(6-methyl-3-pyridinyl)phenyl)methyl)-1-(1-naphthalenyl)ethanamine] | ≤ 10 µM |
| COc1ccc([C@@H](C)NCc2cccc(-c3ccoc3)c2)cc1 [Example 223, (1R)-N-((3-(3-furanyl)phenyl)methyl)-1-(4-(methyloxy)phenyl)ethanamine] | ≤ 10 µM |
| C[C@@H](NCc1ccc(I)c(-c2ccc(C(F)(F)F)cc2)c1)c1ccccc1 [(1R)-N-((6-iodo-4′-(trifluoromethyl)-1,1′-biphenyl-3-yl)methyl)-1-phenylethanamine] | ≤ 10 µM |
| COc1ccc(CN[C@H](C)c2ccccc2)cc1-c1ccc2c(ccn2CC(N)=O)c1 [2-(5-(2-(methyloxy)-5-((((1R)-1-phenylethyl)amino)methyl)phenyl)-1H-indol-1-yl)acetamide] | ≤ 10 µM |
| COc1ccc(CN[C@H](C)c2ccccc2)cc1-n1cccc1 [(1R)-N-((4-(methyloxy)-3-(1H-pyrrol-1-yl)phenyl)methyl)-1-phenylethanamine] | ≤ 10 µM |
| COc1ccc(CN[C@H](C)c2cccc3ccccc23)cc1-c1ccoc1 [(1R)-N-((3-(3-furanyl)-4-(methyloxy)phenyl)methyl)-1-(1-naphthalenyl)ethanamine] | ≤ 10 µM |
| COc1cccc([C@@H](C)NCc2cccc(-c3ccccc3F)c2)c1 [(1R)-N-((2′-fluoro-1,1′-biphenyl-3-yl)methyl)-1-(3-(methyloxy)phenyl)ethanamine] | ≤ 10 µM |
| COc1ccc(CN[C@H](C)c2cccc3ccccc23)cc1-c1cccc(OC(F)(F)F)c1 [(1R)-N-((6-(methyloxy)-3′-((trifluoromethyl)oxy)-1,1′-biphenyl-3-yl)methyl)-1-(1-naphthalenyl)ethanamine] | ≤ 10 µM |
| CCOC(=O)c1ccc(-c2cc(CN[C@H](C)c3cccc(OC)c3)ccc2OC)cc1 [ethyl 2′-(methyloxy)-5′-((((1R)-1-(3-(methyloxy)phenyl)ethyl)amino)methyl)-1,1′-biphenyl-4-carboxylate] | ≤ 10 µM |
| COc1ccc(-c2cc(CN[C@H](C)c3cccc4ccccc34)ccc2NS(C)(=O)=O)cc1 [N-(4′-(methyloxy)-5-((((1R)-1-(1-naphthalenyl)ethyl)amino)methyl)-1,1′-biphenyl-2-yl)methanesulfonamide] | ≤ 10 µM |
| COc1ccc(CN[C@H](C)c2cccc3ccccc23)cc1-c1ccc2ocnc2c1 [(1R)-N-((3-(1,3-benzoxazol-5-yl)-4-(methyloxy)phenyl)methyl)-1-(1-naphthalenyl)ethanamine] | ≤ 10 µM |
| COc1cccc(-c2cc(CN[C@H](C)c3cccc(OC)c3)ccc2OC)c1 [(1R)-N-((3′,6-bis(methyloxy)-1,1′-biphenyl-3-yl)methyl)-1-(3-(methyloxy)phenyl)ethanamine] | ≤ 10 µM |
| COc1cccc([C@@H](C)NCc2ccc(OC)c(-c3csc(C)n3)c2)c1 [(1R)-N-((4-(methyloxy)-3-(2-methyl-1,3-thiazol-4-yl)phenyl)methyl)-1-(3-(methyloxy)phenyl)ethanamine] | ≤ 10 µM |
| COc1ccc(CN[C@H](C)c2cccc3ccccc23)cc1-c1ccc(OCCN2CCCC2)nc1 [(1R)-N-((4-(methyloxy)-3-(6-((2-(1-pyrrolidinyl)ethyl)oxy)-3-pyridinyl)phenyl)methyl)-1-(1-naphthalenyl)ethanamine] | ≤ 10 µM |
| COc1ccc(CN[C@H](C)c2cccc3ccccc23)cc1-n1cccc1 [(1R)-N-((4-(methyloxy)-3-(1H-pyrrol-1-yl)phenyl)methyl)-1-(1-naphthalenyl)ethanamine] | ≤ 10 µM |
| COCCOc1ccc(-c2cc(CN[C@H](C)c3ccccc3)ccc2OC)cn1 [(1R)-N-((4-(methyloxy)-3-(6-((2-(methyloxy)ethyl)oxy)-3-pyridinyl)phenyl)methyl)-1-phenylethanamine] | ≤ 10 µM |
| COc1ccc(CN[C@H](C)c2ccc3ccccc3c2)cc1-c1cncc(C(N)=O)c1 [5-(2-(methyloxy)-5-((((1R)-1-(2-naphthalenyl)ethyl)amino)methyl)phenyl)-3-pyridinecarboxamide] | ≤ 10 µM |
| COc1ccc(-c2cc(CN[C@H](C)c3ccccc3)ccc2OC)nc1 [(1R)-N-((4-(methyloxy)-3-(5-(methyloxy)-2-pyridinyl)phenyl)methyl)-1-phenylethanamine] | ≤ 10 µM |
| COc1cccc([C@@H](C)NCc2ccc(OC)c(-c3ccc(OC(F)(F)F)cc3)c2)c1 [(1R)-1-(3-(methyloxy)phenyl)-N-((6-(methyloxy)-4′-((trifluoromethyl)oxy)-1,1′-biphenyl-3-yl)methyl)ethanamine] | ≤ 10 µM |
| C[C@@H](NCc1cccc(-c2ccoc2)c1)c1ccccc1 [Example 226, (1R)-N-((3-(3-furanyl)phenyl)methyl)-1-phenylethanamine] | ≤ 10 µM |
| COc1cccc([C@@H](C)NCc2ccc(OC)c(-c3cc(OC)ccn3)c2)c1 [(1R)-N-((4-(methyloxy)-3-(4-(methyloxy)-2-pyridinyl)phenyl)methyl)-1-(3-(methyloxy)phenyl)ethanamine] | ≤ 10 µM |
| COc1ccc(CN[C@H](C)c2ccccc2)cc1-c1ccc2c(c1)nc(C(F)(F)F)n2C [(1R)-N-((4-(methyloxy)-3-(1-methyl-2-(trifluoromethyl)-1H-benzimidazol-5-yl)phenyl)methyl)-1-phenylethanamine] | ≤ 10 µM |
| COc1ccc(CN[C@H](C)c2cccc3ccccc23)cc1-c1cncc(C(N)=O)c1 [5-(2-(methyloxy)-5-((((1R)-1-(1-naphthalenyl)ethyl)amino)methyl)phenyl)-3-pyridinecarboxamide] | ≤ 10 µM |
| COc1ccc(CN[C@H](C)c2ccccc2)cc1-c1ccc2ncccc2c1 [(1R)-N-((4-(methyloxy)-3-(6-quinolinyl)phenyl)methyl)-1-phenylethanamine] | ≤ 10 µM |
| CCNC(=O)Nc1ccc(CN[C@H](C)c2ccccc2)cc1-c1ccc(OC)cc1 [N-ethyl-N′-(4′-(methyloxy)-5-((((1R)-1-phenylethyl)amino)methyl)-1,1′-biphenyl-2-yl)urea] | ≤ 10 µM |
| CCOC(=O)c1ccc(-c2cc(CN[C@H](C)c3cccc4ccccc34)ccc2OC)cc1 [ethyl 2′-(methyloxy)-5′-((((1R)-1-(1-naphthalenyl)ethyl)amino)methyl)-1,1′-biphenyl-4-carboxylate] | ≤ 10 µM |
| COc1ccc(CN[C@H](C)c2ccccc2)cc1-c1ccc2oc(C)nc2c1 [(1R)-N-((3-(2-methyl-1,3-benzoxazol-5-yl)-4-(methyloxy)phenyl)methyl)-1-phenylethanamine] | ≤ 10 µM |
